In patent publication US20250325677A1, “STAT6 DEGRADERS” (Gilead Sciences, Inc., priority 2024, published 2025):
Several values for one entry are separate records, joined by “and”; a condition that tells them apart may be missing. Equal entries are not always repeated.

Columns and labels:
eotaxin-3 release = test: Human whole blood eotaxin-3 assay (IL-4 stimulated); assay type: cell-based; details: human whole blood, IL-4 0.4 nM, 48 hours; geometric mean; given for compounds with >80% Emax; read-out: Eotaxin-3 EC50
Description: Human Whole Blood Eotaxin-3 Assay
This was a human whole blood assay using recombinant human Interleukin 4 to stimulate the blood and measuring the ability of the test compounds to inhibit eotaxin-3 release. Compounds or media were added to the wells and incubated together with human whole blood for 120 minutes at 37° C. Subsequently, recombinant IL-4 was added at a final concentration of 0.4 nM. The plates were incubated for 48 hours.
Test compounds which inhibited eotaxin-3 release upon stimulation with human IL-4 (E. coli) interfered with the signaling in human whole blood are expected to have activity in human beings. […] The EC50 value indicates at which concentration test compounds were active and in inhibiting the eotaxin-3 release. As eotaxin-3 release is down-stream of STAT6 signaling both STAT6 inhibitors and STAT6 degraders are active in this assay.
The data from the human whole blood eotaxin-3 assay is shown below for Examples 3e27, 3e50, 3e17, and 3e51 (where the effect in % is plotted against the test concentration in M on a log-scale).

STAT6 = STAT6 (Homo sapiens (Human), UniProt P42226); test: STAT6 degrader assay (HiBiT, HeLa LgBiT clone 4.14); assay type: cell-based; details: HeLa LgBiT clone 4.14, 4-24 h; for DC50: geometric mean, given for compounds with >80% Emax, read-out: STAT6 degradation DC50
Chain of STAT6 (P42226 whole entry): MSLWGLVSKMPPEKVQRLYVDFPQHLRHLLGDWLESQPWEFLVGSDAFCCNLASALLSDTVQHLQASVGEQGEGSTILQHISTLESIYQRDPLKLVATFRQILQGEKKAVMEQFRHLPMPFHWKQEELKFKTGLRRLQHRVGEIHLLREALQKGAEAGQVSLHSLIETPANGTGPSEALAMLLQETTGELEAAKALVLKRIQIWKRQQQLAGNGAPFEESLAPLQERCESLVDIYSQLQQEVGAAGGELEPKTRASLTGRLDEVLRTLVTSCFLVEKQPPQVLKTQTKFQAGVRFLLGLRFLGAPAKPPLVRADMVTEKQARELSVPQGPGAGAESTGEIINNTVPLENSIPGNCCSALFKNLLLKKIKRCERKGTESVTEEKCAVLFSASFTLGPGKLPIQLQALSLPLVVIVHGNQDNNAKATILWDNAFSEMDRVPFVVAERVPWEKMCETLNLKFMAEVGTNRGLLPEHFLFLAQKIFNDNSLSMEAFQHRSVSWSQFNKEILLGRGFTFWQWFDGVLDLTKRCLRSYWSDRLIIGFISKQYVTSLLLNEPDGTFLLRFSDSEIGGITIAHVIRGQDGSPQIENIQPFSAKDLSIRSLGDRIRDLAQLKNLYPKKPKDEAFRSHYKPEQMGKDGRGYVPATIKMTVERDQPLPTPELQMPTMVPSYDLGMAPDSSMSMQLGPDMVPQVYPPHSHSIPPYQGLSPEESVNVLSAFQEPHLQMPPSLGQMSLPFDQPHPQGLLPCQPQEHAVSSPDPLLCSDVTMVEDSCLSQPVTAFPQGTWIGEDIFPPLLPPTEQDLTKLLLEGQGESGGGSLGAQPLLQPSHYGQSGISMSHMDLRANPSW
How it was run: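 HeLa LgBiT clone 4.14 cells with HiBiT knocked into endogenous STAT6 were treated with compound for 4-24 h at 37° C. Luminescence after Nano-GLO substrate (0.5 h) measured remaining STAT6; 50 μM terfenadine wells defined 100% degradation, and DC50 (nM) was derived.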

Row | Compound | EC50 (eotaxin-3 release) [nM] | DC50 (STAT6) | Emax (STAT6; read-out: STAT6 degradation Emax (%)) [%]
1 | COCc1nc2cc(-c3ccnc4c3cc(CN3CCC(c5ccc(C(=O)N6CCC(CN7CCN(Cc8ccc9c(c8)n(C)c(=O)n9C8CCC(=O)NC8=O)CC7)CC6)cc5)CC3)n4C)ccc2[nH]1 (stereo not shown) [Example 3e3, 3-(5-((4-((1-(4-(1-((4-(2-(methoxymethyl)-1H-benzo[d]imidazol-5-yl)-1-methyl-1H-pyrrolo[2,3-b]pyridin-2-yl)methyl)piperidin-4-yl)benzoyl)piperidin-4-yl)methyl)piperazin-1-yl)methyl)-3-methyl-2-oxo-2,3-dihydro-1H-benzo[d]imidazol-1-yl)piperidine-2,6-dione] | 14.4 | 0.8 nM | 
2 | C[C@H]1CN(Cc2ccc3c(c2)n(C)c(=O)n3C2CCC(=O)NC2=O)CCN1CC1CCN(C(=O)c2ccc(C3CCN(Cc4cc5c(-c6ccc(N)nc6)ccnc5n4C)CC3)cc2)CC1 (stereo partly drawn) [Example 3e9, 3-(5-(((S)-4-((1-(4-(1-((4-(6-aminopyridin-3-yl)-1-methyl-1H-pyrrolo[2,3-b]pyridin-2-yl)methyl)piperidin-4-yl)benzoyl)piperidin-4-yl)methyl)-3-methylpiperazin-1-yl)methyl)-3-methyl-2-oxo-2,3-dihydro-1H-benzo[d]imidazol-1-yl)piperidine-2,6-dione] | 31 | 0.75 nM | 
3 | C[C@H]1CN(Cc2ccc3c(c2)n(C2CC2)c(=O)n3C2CCC(=O)NC2=O)CCN1CC1CCN(C(=O)c2ccc(C3CCN(Cc4cc5c(-c6ccc(N)nc6)ccnc5n4C)CC3)cc2)CC1 (stereo partly drawn) [Example 3e13, 3-(5-(((S)-4-((1-(4-(1-((4-(6-aminopyridin-3-yl)-1-methyl-1H-pyrrolo[2,3-b]pyridin-2-yl)methyl)piperidin-4-yl)benzoyl)piperidin-4-yl)methyl)-3-methylpiperazin-1-yl)methyl)-3-cyclopropyl-2-oxo-2,3-dihydro-1H-benzo[d]imidazol-1-yl)piperidine-2,6-dione] | 37.6 | 0.9 nM and 1.1 nM | 
4 | Cn1c(CN2CCC(c3ccc(C(=O)N4CCC(CN5CCN(Cc6cc7c(cc6F)n(C6CCC(=O)NC6=O)c(=O)n7C)CC5)CC4)cc3)CC2)cc2c(-c3ccc(N)nc3)ccnc21 (stereo not shown) [Example 3e15, 3-(5-((4-((1-(4-(1-((4-(6-aminopyridin-3-yl)-1-methyl-1H-pyrrolo[2,3-b]pyridin-2-yl)methyl)piperidin-4-yl)benzoyl)piperidin-4-yl)methyl)piperazin-1-yl)methyl)-6-fluoro-3-methyl-2-oxo-2,3-dihydro-1H-benzo[d]imidazol-1-yl)piperidine-2,6-dione] | 135 |  | 70 to 80
5 | C[C@H]1CN(Cc2ccc3c(c2)n(C)c(=O)n3C2CCC(=O)NC2=O)CCN1CC1CCN(C(=O)c2ccc(C3CCN([C@@H](C)c4cc5c(-c6ccc(N)nc6)ccnc5n4C)CC3)cc2)CC1 (stereo partly drawn) [Example 3e16, 3-(5-(((S)-4-((1-(4-(1-((S)-1-(4-(6-aminopyridin-3-yl)-1-methyl-1H-pyrrolo[2,3-b]pyridin-2-yl)ethyl)piperidin-4-yl)benzoyl)piperidin-4-yl)methyl)-3-methylpiperazin-1-yl)methyl)-3-methyl-2-oxo-2,3-dihydro-1H-benzo[d]imidazol-1-yl)piperidine-2,6-dione] | 1.3 | 0.4 nM | 
6 | C[C@H]1CN(Cc2ccc3c(c2)n(C2CC2)c(=O)n3C2CCC(=O)NC2=O)CCN1CC1CCN(C(=O)c2ccc(C3CCN([C@@H](C)c4cc5c(-c6ccc(N)nc6)ccnc5n4C)CC3)cc2)CC1 (stereo partly drawn) [Example 3e17, 3-(5-(((S)-4-((1-(4-(1-((S)-1-(4-(6-aminopyridin-3-yl)-1-methyl-1H-pyrrolo[2,3-b]pyridin-2-yl)ethyl)piperidin-4-yl)benzoyl)piperidin-4-yl)methyl)-3-methylpiperazin-1-yl)methyl)-3-cyclopropyl-2-oxo-2,3-dihydro-1H-benzo[d]imidazol-1-yl)piperidine-2,6-dione] | 2.8 | 0.8 nM | 
7 | C[C@@H]1CN(Cc2ccc3c(c2)n(C)c(=O)n3C2CCC(=O)NC2=O)C[C@H](C)N1CC1CCN(C(=O)c2ccc(C3CCN([C@@H](C)c4cc5c(-c6ccc(N)nc6)ccnc5n4C)CC3)cc2)CC1 (stereo partly drawn) [Example 3e18, 3-(5-((4-((1-(4-(1-((S)-1-(4-(6-aminopyridin-3-yl)-1-methyl-1H-pyrrolo[2,3-b]pyridin-2-yl)ethyl)-piperidin-4-yl)benzoyl)piperidin-4-yl)methyl)-3,5-cis-dimethylpiperazin-1-yl)methyl)-3-methyl-2-oxo-2,3-dihydro-1H-benzo[d]imidazol-1-yl)piperidine-2,6-dione] | 5.5 | 1.4 nM | 
8 | CC[C@H]1CN(Cc2ccc3c(c2)n(C)c(=O)n3C2CCC(=O)NC2=O)CCN1CC1CCN(C(=O)c2ccc(C3CCN([C@@H](C)c4cc5c(-c6ccc(N)nc6)ccnc5n4C)CC3)cc2)CC1 (stereo partly drawn) [Example 3e23, 3-(5-(((S)-4-((1-(4-(1-((S)-1-(4-(6-aminopyridin-3-yl)-1-methyl-1H-pyrrolo[2,3-b]pyridin-2-yl)ethyl)piperidin-4-yl)benzoyl)piperidin-4-yl)methyl)-3-ethylpiperazin-1-yl)methyl)-3-methyl-2-oxo-2,3-dihydro-1H-benzo[d]imidazol-1-yl)piperidine-2,6-dione] | 4.2 | 0.8 nM | 
9 | COCc1nc2cc(-c3ccnc4c3cc([C@H](C)N3CCC(c5ccc(C(=O)N6CCC(CN7CCN(Cc8ccc9c(c8)n(C8CC8)c(=O)n9C8CCC(=O)NC8=O)C[C@@H]7C)CC6)cc5)CC3)n4C)ccc2[nH]1 (stereo partly drawn) [Example 3e27, 3-(3-cyclo-propyl-5-(((S)-4-((1-(4-(1-((S)-1-(4-(2-(methoxymethyl)-1H-benzo[d]imidazol-5-yl)-1-methyl-1H-pyrrolo[2,3-b]pyridin-2-yl)ethyl)piperidin-4-yl)benzoyl)piperidin-4-yl)methyl)-3-methylpiperazin-1-yl)methyl)-2-oxo-2,3-dihydro-1H-benzo[d]imidazol-1-yl)piperidine-2,6-dione] | 2.7 | 0.4 nM | 
10 | COC[C@H]1CN(Cc2ccc3c(c2)n(C)c(=O)n3C2CCC(=O)NC2=O)CCN1CC1CCN(C(=O)c2ccc(C3CCN([C@@H](C)c4cc5c(-c6ccc(N)nc6)ccnc5n4C)CC3)cc2)CC1 (stereo partly drawn) [Example 3e28, 3-(5-(((R)-4-((1-(4-(1-((S)-1-(4-(6-aminopyridin-3-yl)-1-methyl-1H-pyrrolo[2,3-b]pyridin-2-yl)ethyl)piperidin-4-yl)benzoyl)piperidin-4-yl)methyl)-3-(methoxymethyl)piperazin-1-yl)methyl)-3-methyl-2-oxo-2,3-dihydro-1H-benzo[d]imidazol-1-yl)piperidine-2,6-dione] | 1.1 | 0.2 nM | 
11 | C[C@@H](c1cc2c(-c3ccc(N)nc3)ccnc2n1C)N1CCC(c2ccc(C(=O)N3CCC(CN4[C@@H](C)CN(Cc5ccc6c(c5)n(C)c(=O)n6C5CCC(=O)NC5=O)C[C@@H]4C)CC3)cc2)CC1 (stereo partly drawn) [Example 3e29, 3-(5-(((3S,5S)-4-((1-(4-(1-((S)-1-(4-(6-aminopyridin-3-yl)-1-methyl-1H-pyrrolo [2,3-b]pyridin-2-yl)ethyl)piperidin-4-yl)benzoyl)piperidin-4-yl)methyl)-3,5-dimethylpiperazin-1l-yl)methyl)-3-methyl-2-oxo-2,3-dihydro-1H-benzo[d]imidazol-1-yl)piperidine-2,6-dione] | 2.3 | 0.4 nM | 
12 | C[C@@H](c1cc2c(-c3ccc(N)nc3)ccnc2n1C)N1CCC(c2ccc(C(=O)N3CCC(CN4CCN(Cc5cc6c(cc5Cl)n(C5CCC(=O)NC5=O)c(=O)n6C)CC4)CC3)cc2)CC1 (stereo partly drawn) [Example 3e30, 3-(5-((4-((1-(4-(1-((S)-1-(4-(6-aminopyridin-3-yl)-1-methyl-1H-pyrrolo[2,3-b]pyridin-2-yl)ethyl)piperidin-4-yl)benzoyl)piperidin-4-yl)methyl)piperazin-1-yl)methyl)-6-chloro-3-methyl-2-oxo-2,3-dihydro-1H-benzo[d]imidazol-1-yl)piperidine-2,6-dione] | 36.9 | 7.2 nM | 
13 | C[C@@H](c1cc2c(-c3ccc(N)nc3)ccnc2n1C)N1CCC(c2ccc(C(=O)N3CCC(CN4CCN(Cc5ccc6c(c5)n(C)c(=O)n6C5CCC(=O)NC5=O)CC4C(F)(F)F)CC3)cc2)CC1 (stereo partly drawn) [Example 3e31, 3-(5-((4-((1-(4-(1-((S)-1-(4-(6-aminopyridin-3-yl)-1-methyl-1H-pyrrolo[2,3-b]pyridin-2-yl)ethyl)piperidin-4-yl)benzoyl)piperidin-4-yl)methyl)-3-(trifluoromethyl)piperazin-1-yl)methyl)-3-methyl-2-oxo-2,3-dihydro-1H-benzo[d]imidazol-1-yl)piperidine-2,6-dione] | 9.3 | 2 nM | 
14 | C[C@@H](c1cc2c(-c3ccc(N)nc3)ccnc2n1C)N1CCC(c2ccc(C(=O)N3CCC(F)(CN4CCN(Cc5ccc6c(c5)n(C)c(=O)n6C5CCC(=O)NC5=O)CC4)CC3)cc2)CC1 (stereo partly drawn) [Example 3e32, 3-(5-((4-((1-(4-(1-((S)-1-(4-(6-aminopyridin-3-yl)-1-methyl-1H-pyrrolo[2,3-b]pyridin-2-yl)ethyl)piperidin-4-yl)benzoyl)-4-fluoropiperidin-4-yl)methyl)piperazin-1-yl)methyl)-3-methyl-2-oxo-2,3-dihydro-1H-benzo[d]imidazol-1-yl)piperidine-2,6-dione] | 7.8 | 1.6 nM | 
